{"source": "paper PMC7201885", "about": "(The Journal of General Physiology, 2020)", "key": {"T179A nvTRPM2": {"target": "T179A nvTRPM2 (Nematostella vectensis, UniProt A7T1N0, T179A)", "sequence (A7T1N0 whole entry T179A)": "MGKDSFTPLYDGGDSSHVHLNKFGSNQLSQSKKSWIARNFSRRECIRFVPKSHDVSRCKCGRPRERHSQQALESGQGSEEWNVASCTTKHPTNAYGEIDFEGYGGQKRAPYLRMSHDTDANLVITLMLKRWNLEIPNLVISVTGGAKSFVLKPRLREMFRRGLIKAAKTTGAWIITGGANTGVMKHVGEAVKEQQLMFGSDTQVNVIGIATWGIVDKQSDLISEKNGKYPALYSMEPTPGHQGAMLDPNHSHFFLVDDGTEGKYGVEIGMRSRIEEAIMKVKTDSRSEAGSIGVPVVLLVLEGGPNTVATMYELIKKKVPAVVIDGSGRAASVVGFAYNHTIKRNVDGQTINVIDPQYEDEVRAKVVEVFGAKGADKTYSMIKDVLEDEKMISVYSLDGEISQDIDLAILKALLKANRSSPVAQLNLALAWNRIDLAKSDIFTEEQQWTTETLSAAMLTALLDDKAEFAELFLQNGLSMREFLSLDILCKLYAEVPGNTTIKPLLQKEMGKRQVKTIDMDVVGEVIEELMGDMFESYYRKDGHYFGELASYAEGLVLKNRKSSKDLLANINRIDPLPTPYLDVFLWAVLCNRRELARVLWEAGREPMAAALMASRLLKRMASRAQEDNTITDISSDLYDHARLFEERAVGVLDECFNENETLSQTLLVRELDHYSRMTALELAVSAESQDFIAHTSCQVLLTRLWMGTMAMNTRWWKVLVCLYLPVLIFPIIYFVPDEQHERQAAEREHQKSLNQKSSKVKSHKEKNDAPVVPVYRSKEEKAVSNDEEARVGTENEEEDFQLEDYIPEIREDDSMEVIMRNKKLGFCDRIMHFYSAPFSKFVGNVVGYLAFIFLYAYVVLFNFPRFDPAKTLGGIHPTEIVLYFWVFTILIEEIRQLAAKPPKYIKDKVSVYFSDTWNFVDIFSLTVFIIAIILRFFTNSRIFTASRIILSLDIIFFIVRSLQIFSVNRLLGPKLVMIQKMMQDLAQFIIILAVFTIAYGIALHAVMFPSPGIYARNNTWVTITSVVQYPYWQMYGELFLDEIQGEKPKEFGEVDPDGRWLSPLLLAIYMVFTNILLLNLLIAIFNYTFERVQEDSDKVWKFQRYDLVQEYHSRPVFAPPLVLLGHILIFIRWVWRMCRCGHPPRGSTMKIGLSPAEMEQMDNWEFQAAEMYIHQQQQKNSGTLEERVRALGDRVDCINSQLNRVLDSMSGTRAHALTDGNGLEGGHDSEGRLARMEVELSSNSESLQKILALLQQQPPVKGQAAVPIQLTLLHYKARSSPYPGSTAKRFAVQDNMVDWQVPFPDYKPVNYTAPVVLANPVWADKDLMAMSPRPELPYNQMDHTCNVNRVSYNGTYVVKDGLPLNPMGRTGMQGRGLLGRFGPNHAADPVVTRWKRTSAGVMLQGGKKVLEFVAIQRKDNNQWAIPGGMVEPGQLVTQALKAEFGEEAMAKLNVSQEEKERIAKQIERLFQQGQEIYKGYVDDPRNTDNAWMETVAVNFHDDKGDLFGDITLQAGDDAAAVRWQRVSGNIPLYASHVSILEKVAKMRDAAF", "assay": "Inside-out patch-clamp, T179A nvTRPM2", "format": "cell-based"}, "R329A nvTRPM2": {"target": "R329A nvTRPM2 (Nematostella vectensis, UniProt A7T1N0, R329A)", "sequence (A7T1N0 whole entry R329A)": "as the sequence (A7T1N0 whole entry T179A) above, with A179T, R329A counted along it", "assay": "Inside-out patch-clamp, R329A nvTRPM2", "format": "cell-based"}, "R271A nvTRPM2": {"target": "R271A nvTRPM2 (Nematostella vectensis, UniProt A7T1N0, R271A)", "sequence (A7T1N0 whole entry R271A)": "as the sequence (A7T1N0 whole entry T179A) above, with A179T, R271A counted along it", "assay": "Inside-out patch-clamp, R271A nvTRPM2", "format": "cell-based"}, "T143A nvTRPM2": {"target": "T143A nvTRPM2 (Nematostella vectensis, UniProt A7T1N0, T143A)", "sequence (A7T1N0 whole entry T143A)": "as the sequence (A7T1N0 whole entry T179A) above, with T143A, A179T counted along it", "assay": "Inside-out patch-clamp, T143A nvTRPM2", "format": "cell-based"}, "Y264A nvTRPM2": {"target": "Y264A nvTRPM2 (Nematostella vectensis, UniProt A7T1N0, Y264A)", "sequence (A7T1N0 whole entry Y264A)": "as the sequence (A7T1N0 whole entry T179A) above, with A179T, Y264A counted along it", "assay": "Inside-out patch-clamp, Y264A nvTRPM2", "format": "cell-based"}, "T307A nvTRPM2": {"target": "T307A nvTRPM2 (Nematostella vectensis, UniProt A7T1N0, T307A)", "sequence (A7T1N0 whole entry T307A)": "as the sequence (A7T1N0 whole entry T179A) above, with A179T, T307A counted along it", "assay": "Inside-out patch-clamp, T307A nvTRPM2", "format": "cell-based"}, "nvTRPM2": {"target": "nvTRPM2 (Nematostella vectensis, UniProt A7T1N0)", "sequence (A7T1N0 whole entry)": "as the sequence (A7T1N0 whole entry T179A) above, with A179T counted along it", "assay": "Inside-out patch-clamp, full-length", "format": "cell-based", "details": "for Mode of action on nvTRPM2: compared with ADPR; for Maximal fractional activation: relative to current in 100 µM ADPR"}, "hsTRPM2": {"tested_on": "hsTRPM2", "details": "cited from earlier work"}, "[1]": {"details": "read-out: EC50 for channel activation, 125 µM Ca2+ + 2.5 µM PIP2"}, "[2]": {"details": "full-length nvTRPM2, 125 µM Ca2+"}, "[3]": {"details": "read-out: EC50 for nvTRPM2 channel activation, full-length nvTRPM2, 125 µM cytosolic Ca2+, Hill fit, −20 mV"}, "[4]": {"details": "25 µM PIP2, 125 µM Ca2+ + 3.2 mM ADPR"}, "[5]": {"details": "2.5 and 25 µM PIP2, 125 µM Ca2+ + 3.2 mM ADPR"}, "[6]": {"details": "read-out: EC50 for channel activation by Ca2+ (fractional Po), saturating ADPRP (100 µM) + 2.5 µM PIP2"}, "[7]": {"details": "saturating ADPRP (100 µM) + 2.5 µM PIP2"}, "[8]": {"details": "read-out: EC50 for channel activation by Ca2+ (fractional Po), saturating ADPRP (1,000 µM) + 2.5 µM PIP2"}, "[9]": {"details": "saturating ADPRP (1,000 µM) + 2.5 µM PIP2"}}, "note": "Several values for one entry are separate records, joined by “and”; a condition that tells them apart may be missing. Equal values may be shown once. Read-outs that look alike come from different tables or passages of the source.", "data": [{"smiles": "Nc1ncnc2c1ncn2[C@@H]1O[C@H](COP(=O)(O)OP(=O)(O)OC[C@H]2O[C@@H](O)C(O)[C@H]2O)C(O)[C@@H]1OP(=O)(O)O", "note": "(some centres unmarked) [ADPRP, ADPR-2′-phosphate]", "values": [{"measurement": "Hill coefficient nH for channel activation", "setting": "T179A nvTRPM2; 125 µM Ca2+ + 2.5 µM PIP2", "result": "1.4 ± 0.2"}, {"measurement": "EC50", "setting": "T179A nvTRPM2; [1]", "result": "3900 ± 500", "unit": "nM"}, {"measurement": "Hill coefficient nH for channel activation", "setting": "R329A nvTRPM2; 125 µM Ca2+ + 2.5 µM PIP2", "result": "2.1 ± 0.2"}, {"measurement": "Hill coefficient nH for channel activation", "setting": "R271A nvTRPM2; 125 µM Ca2+ + 2.5 µM PIP2", "result": "1.7 ± 0.2"}, {"measurement": "EC50", "setting": "R271A nvTRPM2; [1]", "result": "89 ± 5", "unit": "nM"}, {"measurement": "Hill coefficient nH for channel activation", "setting": "T143A nvTRPM2; 125 µM Ca2+ + 2.5 µM PIP2", "result": "1.8 ± 0.1"}, {"measurement": "EC50", "setting": "T143A nvTRPM2; [1]", "result": "1500 ± 100", "unit": "nM"}, {"measurement": "Hill coefficient nH for channel activation", "setting": "Y264A nvTRPM2; 125 µM Ca2+ + 2.5 µM PIP2", "result": "1.8 ± 0.3"}, {"measurement": "Hill coefficient nH for channel activation", "setting": "T307A nvTRPM2; 125 µM Ca2+ + 2.5 µM PIP2", "result": "1.6 ± 0.2"}, {"measurement": "EC50", "setting": "T307A nvTRPM2; [1]", "result": "12000 ± 1000", "unit": "nM"}, {"measurement": "Mode of action on nvTRPM2", "setting": "nvTRPM2; 125 µM Ca2+", "result": "full agonist"}, {"measurement": "Potency for activating WT nvTRPM2 relative to ADPR", "setting": "nvTRPM2; EC50 ratio versus ADPR", "result": "approximately fivefold"}, {"measurement": "Hill coefficient nH for channel activation", "setting": "nvTRPM2; WT nvTRPM2, 125 µM Ca2+ + 2.5 µM PIP2", "result": "1.8 ± 0.2"}, {"measurement": "Hill coefficient nH for channel activation", "setting": "nvTRPM2; [2]", "result": "2.1 ± 0.4"}, {"measurement": "EC50", "setting": "nvTRPM2; read-out: EC50 for channel activation, WT nvTRPM2, 125 µM Ca2+ + 2.5 µM PIP2", "result": "310 ± 20", "unit": "nM"}, {"measurement": "EC50", "setting": "nvTRPM2; [3]", "result": "~400", "unit": "nM"}, {"measurement": "Maximal fractional activation", "setting": "nvTRPM2; 125 µM Ca2+", "result": "1.06 ± 0.03"}, {"measurement": "EC50", "setting": "hsTRPM2; read-out: EC50 for hsTRPM2, activation, inside-out patches, saturating cytosolic Ca2+, ref Tóth et al., 2015", "result": "13000 ± 1000", "unit": "nM"}, {"measurement": "Mode of action on hsTRPM2", "setting": "hsTRPM2; ref Tóth et al., 2015", "result": "low-affinity partial agonist"}]}, {"smiles": "CCCCCCCC(=O)OC[C@H](COP(=O)(O)O[C@@H]1[C@H](O)[C@H](O)[C@@H](OP(=O)(O)O)[C@H](OP(=O)(O)O)[C@H]1O)OC(=O)CCCCCCC", "note": "[PIP2, phosphatydyl-inositol-4-5-bisphosphate]", "values": [{"measurement": "Stimulation of macroscopic current by exogenous PIP2", "setting": "T179A nvTRPM2; [4]", "result": "~80", "unit": "fold"}, {"measurement": "Stimulation of macroscopic current by exogenous PIP2", "setting": "R271A nvTRPM2; [4]", "result": "approximately twofold"}, {"measurement": "Stimulation of macroscopic current by exogenous PIP2", "setting": "T143A nvTRPM2; [5]", "result": "small fractional stimulation"}, {"measurement": "Stimulation of macroscopic current by exogenous PIP2", "setting": "Y264A nvTRPM2; [4]", "result": "~40", "unit": "fold"}, {"measurement": "Stimulation of macroscopic current by exogenous PIP2", "setting": "T307A nvTRPM2; [5]", "result": "small fractional stimulation"}, {"measurement": "Stimulation of macroscopic current by exogenous PIP2", "setting": "nvTRPM2; WT, 125 µM Ca2+ + 3.2 mM ADPR", "result": "only marginal additional stimulation"}]}, {"smiles": "Nc1ncnc2c1ncn2[C@H]1C[C@H](O)[C@@H](COP(=O)(O)OP(=O)(O)OC[C@H]2OC(O)[C@H](O)[C@@H]2O)O1", "note": "(some centres unmarked) [dADPR, 2′-deoxy-ADPR]", "values": [{"measurement": "Mode of action on nvTRPM2", "setting": "nvTRPM2; 125 µM Ca2+", "result": "similarly efficacious and potent as ADPR"}, {"measurement": "Hill coefficient nH for channel activation", "setting": "nvTRPM2; [2]", "result": "1.3 ± 0.2"}, {"measurement": "EC50", "setting": "nvTRPM2; [3]", "result": "~2700 nM and 2700 nM"}, {"measurement": "Maximal fractional activation", "setting": "nvTRPM2; 125 µM Ca2+", "result": "1.1 ± 0.04"}, {"measurement": "Mode of action on hsTRPM2", "setting": "hsTRPM2; larger maximal whole-cell currents compared with ADPR, ref Fliegert et al., 2017", "result": "super-agonist"}]}, {"smiles": "[Ca+2]", "note": "[Ca^2+]", "values": [{"measurement": "EC50", "setting": "T179A nvTRPM2; [6]", "result": "1800 ± 100", "unit": "nM"}, {"measurement": "Hill coefficient nH for activation by Ca2+", "setting": "T179A nvTRPM2; [7]", "result": "2.3 ± 0.1"}, {"measurement": "EC50", "setting": "R329A nvTRPM2; [8]", "result": "1100 ± 40", "unit": "nM"}, {"measurement": "Hill coefficient nH for activation by Ca2+", "setting": "R329A nvTRPM2; [9]", "result": "2.0 ± 0.2"}, {"measurement": "EC50", "setting": "R271A nvTRPM2; read-out: EC50 for channel activation by Ca2+ (fractional Po), saturating ADPRP (10 µM) + 2.5 µM PIP2", "result": "1680 ± 40", "unit": "nM"}, {"measurement": "Hill coefficient nH for activation by Ca2+", "setting": "R271A nvTRPM2; saturating ADPRP (10 µM) + 2.5 µM PIP2", "result": "3.0 ± 0.2"}, {"measurement": "EC50", "setting": "T143A nvTRPM2; [6]", "result": "640 ± 20", "unit": "nM"}, {"measurement": "Hill coefficient nH for activation by Ca2+", "setting": "T143A nvTRPM2; [7]", "result": "2.3 ± 0.2"}, {"measurement": "EC50", "setting": "Y264A nvTRPM2; [8]", "result": "2000 ± 100", "unit": "nM"}, {"measurement": "Hill coefficient nH for activation by Ca2+", "setting": "Y264A nvTRPM2; [9]", "result": "1.8 ± 0.1"}, {"measurement": "EC50", "setting": "T307A nvTRPM2; [8]", "result": "930 ± 50", "unit": "nM"}, {"measurement": "Hill coefficient nH for activation by Ca2+", "setting": "T307A nvTRPM2; [9]", "result": "1.9 ± 0.2"}, {"measurement": "Hill coefficient nH for activation by Ca2+", "setting": "nvTRPM2; WT, saturating ADPRP (10 µM) + 2.5 µM PIP2", "result": "1.7 ± 0.2"}]}, {"smiles": "O=P(O)(OC[C@H]1OC(O)[C@H](O)[C@@H]1O)OP(=O)(O)OC[C@H]1O[C@@H](n2cnc3c2ncn2ccnc32)[C@H](O)[C@@H]1O", "note": "(some centres unmarked) [ε-ADPR, 1,N^6-ethenoadenosine-5′-O-diphosphoribose]", "values": [{"measurement": "Mode of action on nvTRPM2", "setting": "nvTRPM2; 125 µM Ca2+", "result": "low-affinity antagonist"}, {"measurement": "Current induced by the analogue alone", "setting": "nvTRPM2; 200 µM, 125 µM cytosolic Ca2+", "result": "only tiny currents"}, {"measurement": "Reduction of currents elicited by 3.2 µM ADPR", "setting": "nvTRPM2; coapplication of 200 µM ε-ADPR, 125 µM Ca2+", "result": "~25", "unit": "%"}, {"measurement": "Mode of action on hsTRPM2", "setting": "hsTRPM2; ref Iordanov et al., 2016", "result": "low-affinity antagonist"}]}]}
